From US20250057913A1, “USE OF SOMATOSTATIN AGONIST IN THE TREATMENT OF SSTR3 EXPRESSING TUMORS” (ITALFARMACO SPA, priority 2021, published 2025)
*1 amine or outer side, *2 acyl side, *3 side chain or, on linkers, in order; H or OH if unused. Where a SMILES comes first, the peptide text is derived from it. Side-chain parts run from the residue outwards. [ ]: non-standard residue; d: D form. The star is where a group is joined. Ethylenediamine = C(CN[*:2])N[*:1]; Hyp = O=C(O)[C@@H]1C[C@@H](O)CN1; Phg = N[C@H](C(=O)O)c1ccccc1; CO = O=C([*:1])[*:2]; Bn = c1ccc(C*)cc1

How the values were obtained:
NT-3 cell line spheroids = test: Cytotoxic activity on NT-3 cell line spheroids; type: cell-based, human; conditions: 2.56 μM, 18 days
Experimental: NT-3 well-differentiated pancreatic neuroendocrine (PanNET) cell line (32) is an in-vitro model for pancreatic tumours.
Said cells were cultured in RPMI 1640 Medium GlutaMAX™ with 10% FBS, 1% Penicillin/Streptomycin, 20ng/ml EGF (AF-100-15, Peprotech), 10 ng/ml FGF (100-18B, Peprotech).
3D spheroids were generated by seeding 2000 cells/well in a 96-well ULA plate (Corning). Four replicates for each condition were seeded.
The spheroid formation required 4 days before starting the treatment.
The treatment was repeated every 3 days by replacing 50% of the medium (to avoid spheroid removal) with new medium containing 2× desired drug concentration.
Spheroid morphology was monitored every day during the treatment and pictures were taken on day 0, 4, 7, 11, 14, 18. Day 0 corresponds to the first day of treatment. Pictures were taken from the same well every time point.

SSTR2 [1] = molecular target: T1, SSTR2 (Homo sapiens, UniProt P30874); test: SSTR2 phosphorylation in HEK293 transfected cells (phosphosite-specific antibodies); type: cell-based; parameters: expressed in transfected cells; conditions: 10 or 1 μM, 10 min at 37° C.
Experimental: (A) Schematic representation of the human SSTR2 receptor indicating all potential phosphate acceptor sites within the carboxyl-terminal tail. Epitopes of the phosphosite-specific antibodies are marked (-P). […] The levels of phosphorylated SSTR2 receptor were then determined using the phosphosite-specific anti-pS341/pS343, pT353/T354, pT356/T359 antibodies. […] Blots shown are representative of three independent experiments. The positions of molecular mass markers are indicated on the left (in kDa).

SSTR2-tGFP = SSTR2-tGFP (Homo sapiens, UniProt P30874); test: Internalization of SSTR2 in U2OS transfected cells; type: cell-based; parameters: expressed in transfected cells; host or cells: U2OS
Description: (§1) HEK293 cells transfected with human SSTRs, and U20S cells transfected with human GFP-tagged receptors (SSTR2-tGFP, SSTR3-tGFP, SSTR5-tGFP).

SSTR3-tGFP = SSTR3-tGFP (Homo sapiens, UniProt P32745); test: Internalization of SSTR3 in U2OS transfected cells; type: cell-based; parameters: expressed in transfected cells; host or cells: U2OS
Description: as §1

opioid receptors = test: single dose binding assays on opioid receptors; conditions: single dose 10^−5 M
[2] = tested on: NFPAs in MENX (homozygous mutant) rats; conditions: female and male rats; cited from earlier work
[3] = tested on: Clinically Non-Functioning Pituitary Adenoma; conditions: Pasireotide LAR, NFPA patients; cited from earlier work
SSTR3 [4] = molecular target: T2, SSTR3 (Homo sapiens, UniProt P32745); test: SSTR3 phosphorylation in HEK293 transfected cells (phosphosite-specific antibodies); type: cell-based; parameters: expressed in transfected cells; conditions: 10^−12 to 10^−5 M, 10 min at 37° C.
Experimental: The levels of phosphorylated SST3 receptor were then determined using the phosphosite-specific anti-pS337/pT341 or anti-pT348.
(§2) Finally, the SSTR5 pT333 phosphosite was only partially affected by all tested compounds, with Pasireotide showing the most pronounced effect (FIG. 9B, C).

SSTR5 [5] = molecular target: T3, SSTR5 (Homo sapiens, UniProt P35346); test: SSTR5 phosphorylation in HEK293 transfected cells (anti-pT333); type: cell-based; parameters: expressed in transfected cells; conditions: 10 min at 37° C.
Description: FIG. 9—Agonist-selective SSTR5 phosphorylation in HEK293 transfected cells. (A) Schematic representation of the human SSTR5 receptor indicating all potential phosphate acceptor site within the carboxyl-terminal tail. Epitope of the phosphosite-specific antibodies are marked (-P) . . . […] (C) Blots were subsequently stripped and reprobed with anti-HA antibody to confirm equal loading of the gels. Blots shown are representative of three independent experiments. The positions of molecular mass markers are indicated on the left (in kDa).
as §2

SSTR5-tGFP = SSTR5-tGFP (Homo sapiens, UniProt P35346); test: Internalization of SSTR5 in U2OS transfected cells; type: cell-based; parameters: expressed in transfected cells; host or cells: U2OS
Description: as §1

SSTR3 [6] = molecular target: T2, SSTR3; test: GIRK-based fluorescence membrane potential assay, HEK293-GIRK2-GFP-HA-hSST3
Description: The concentrations used are indicated. […] Data points represent mean±S.E.M.
(§3) Therefore, G protein-signaling mediated by SSTR agonists was studied using a GIRK-based fluorescence membrane potential assay both in HEK293 cells transfected with hSSTR3, and in AtT20 wild-type as well as hSSTR3-transfected cells.

SSTR5 [7] = molecular target: T3, SSTR5
Description: as §3

SSTR2 [8] = molecular target: T1, SSTR2; test: cell-based; parameters: expressed in transfected cells; host or cells: HEK293 co-expressing GIRK2-GFP
Description: as §3

[9] = molecular target: wild-type hSSTR2 stably expressed in HEK293 cells (human) (UniProt P30874)
[10] = molecular target: wild-type hSSTR3 stably expressed in HEK293 cells (human) (UniProt P32745)
[11] = molecular target: wild-type hSSTR5 stably expressed in HEK293 cells (human) (UniProt P35346)

Chain of SSTR2-tGFP (P30874 whole entry): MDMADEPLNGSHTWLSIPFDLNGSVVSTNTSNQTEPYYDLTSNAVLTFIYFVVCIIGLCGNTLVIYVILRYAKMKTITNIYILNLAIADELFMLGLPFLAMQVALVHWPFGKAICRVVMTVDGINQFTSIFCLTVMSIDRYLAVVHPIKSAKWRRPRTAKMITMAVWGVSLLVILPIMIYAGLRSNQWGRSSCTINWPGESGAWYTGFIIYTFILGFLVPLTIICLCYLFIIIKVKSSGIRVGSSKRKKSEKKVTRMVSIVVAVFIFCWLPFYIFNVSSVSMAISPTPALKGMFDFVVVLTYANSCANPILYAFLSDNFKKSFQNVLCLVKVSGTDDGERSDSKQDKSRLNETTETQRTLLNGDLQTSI
T1 sequence (P30874 whole entry): as above
Chain of SSTR3-tGFP (P32745 whole entry): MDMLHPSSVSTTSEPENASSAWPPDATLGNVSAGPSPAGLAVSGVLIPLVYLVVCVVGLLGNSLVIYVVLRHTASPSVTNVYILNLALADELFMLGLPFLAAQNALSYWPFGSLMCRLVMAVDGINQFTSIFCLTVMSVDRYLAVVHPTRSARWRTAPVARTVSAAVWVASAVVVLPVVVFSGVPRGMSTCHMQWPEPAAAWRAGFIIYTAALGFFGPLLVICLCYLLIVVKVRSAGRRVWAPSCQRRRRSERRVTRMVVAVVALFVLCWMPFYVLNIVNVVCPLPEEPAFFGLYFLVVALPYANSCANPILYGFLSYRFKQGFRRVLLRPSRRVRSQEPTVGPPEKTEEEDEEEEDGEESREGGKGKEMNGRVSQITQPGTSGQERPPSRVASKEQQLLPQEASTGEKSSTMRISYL
T2 sequence (P32745 whole entry): as above
T3 sequence (P35346 whole entry): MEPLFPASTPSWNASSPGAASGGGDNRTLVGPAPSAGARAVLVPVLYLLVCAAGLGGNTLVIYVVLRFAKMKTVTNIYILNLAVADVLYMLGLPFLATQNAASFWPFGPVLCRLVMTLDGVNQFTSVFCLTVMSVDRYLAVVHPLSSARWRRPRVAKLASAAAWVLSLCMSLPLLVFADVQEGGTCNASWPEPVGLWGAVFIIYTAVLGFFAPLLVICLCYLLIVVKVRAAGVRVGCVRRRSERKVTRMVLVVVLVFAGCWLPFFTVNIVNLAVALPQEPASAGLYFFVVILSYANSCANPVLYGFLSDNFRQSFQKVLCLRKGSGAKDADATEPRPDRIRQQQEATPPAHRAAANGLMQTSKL
Chain of SSTR5-tGFP (P35346 whole entry): as above

Compound | spheroid morphology at the highest concentration (NT-3 cell line spheroids) | phosphorylation of SSTR2 (pS341/pS343, pT353/T354, pT356/T359) (SSTR2 [1]) | Mean of internalized fluorescence, SSTR2 (SSTR2-tGFP; 1 μM) | Mean of internalized fluorescence, SSTR2 (SSTR2-tGFP; 10 μM) | Mean of internalized fluorescence, SSTR3 (SSTR3-tGFP; 1 μM) | Mean of internalized fluorescence, SSTR3 (SSTR3-tGFP; 10 μM) | Compound activity (EC50 nM), GIRK membrane potential assay [9] | other results
C[C@@H](O)[C@@H]1NC(=O)[C@H](CCCCN)NC(=O)[C@@H](Cc2c[nH]c3ccccc23)NC(=O)[C@H](Cc2ccccc2)NC(=O)[C@@H](NC(=O)[C@H](N)Cc2ccccc2)CSSC[C@@H](C(=O)N[C@H](CO)[C@@H](C)O)NC1=O [Octreotide] | still maintain their morphology | full phosphorylation of SSTR2 | 74.1 AU | 81.0 AU | 43.4 AU | 55.2 AU | – | rank as SSTR2-tGFP internalization inducer (SSTR2-tGFP): most potent internalization inducer
NCCCC[C@@H]1NC(=O)[C@@H](Cc2c[nH]c3ccccc23)NC(=O)[C@H](c2ccccc2)NC(=O)[C@@H]2C[C@@H](OC(=O)NCCN)CN2C(=O)[C@H](Cc2ccccc2)NC(=O)[C@H](Cc2ccc(OCc3ccccc3)cc2)NC1=O [Pasireotide, reference compound] (cyclo([Hyp]([CO-Ethylenediamine])[Phg][dW]KY(Bn)F)) | still maintain their morphology | selective phosphorylation of S341/S343 | 49.2 AU | 50.5 AU | 41.6 AU | 46.3 AU | – | replacement of agonists (opioid receptors): fully replace agonists; antitumor activity in the MENX model (published report) [2]: higher antitumor activity than Octreotide; patients reaching a tumor size reduction at least 20% [3]: 16.7%; phosphorylation of SSTR3 (pS337/pT341, pT348) (SSTR3 [4]): weak effect; phosphorylation of SSTR5 (pT333) (SSTR5 [5]): more potent than ITF2984 and octreotide; Mean of internalized fluorescence, SSTR5 (SSTR5-tGFP; 1 μM): 40.5 AU; Mean of internalized fluorescence, SSTR5 (SSTR5-tGFP; 10 μM): 43.9 AU; EC50 (SSTR3 [6]): 63 ± 7.5 nM; EC50 (SSTR5 [7]): 16.5 ± 2.5 nM; EC50 (SSTR2 [8]): 60 ± 16.3 nM
Octreotide (peptide) | – | – | – | – | – | – | 4 nM | –
Pasireotide (peptide) | – | – | – | – | – | – | 60 nM | Compound activity (EC50 nM), GIRK membrane potential assay [10]: 63 nM; Compound activity (EC50 nM), GIRK membrane potential assay [11]: 16.5 nM
